What all share (format): cell-based
The subject of test [1] is hepatocellular carcinoma cell line Hep3B. Kind of test: Growth inhibition of Hep3B cells, 48 hr treatment, Hoechst 33342 nucleus count (GE InCell 2200). As to conditions: Homo sapiens. A digest of the protocol:
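Compound exposure lasted 48 hr at 37° C, 5% CO2. Surviving nuclei were counted after Hoechst 33342 staining, and survival was expressed as the treated/non-treated cell number ratio, including the ratio at 10 μM compound.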

For test [2], the system named is SW480 colon adenocarcinoma cell line. Kind of test: MTS cell viability assay (NCI-60 methodology), GI50/LC50, SW480. As to conditions: Homo sapiens, 48 h, SW480 cells, 2 days incubation with compound. A digest of the protocol: (§1)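 Cells were plated 24 h before treatment, and a time-zero plate was read by MTS. Five 2-fold dilutions plus DMSO were then added for 48 h, and viability was measured by MTS. GI50 is from [(Ti−Tz)/(C−Tz)]×100=50 and LC50 from [(Ti−Tz)/Tz]×100=−50.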

The subject of test [3] is Hep3B hepatocellular carcinoma cell line. Description: MTS cell viability assay (NCI-60 methodology), GI50/LC50, Hep3B. Conditions: Homo sapiens, 48 h, Hep3B cells, 2 days incubation with compound. A digest of the protocol: as §1
In general terms: Tetrazolium dyes change colour on reduction, which living cells bring about.

In test [4] the test system is NCI-H460 human lung cancer cell line. Kind of test: MTS cell viability assay (NCI-60 methodology), GI50/LC50, NCI-H460. Conditions: 48 h, NCI-H460 cells, 2 days incubation with compound. In short, it runs like this: as §1
Where [5] appears, read: Table 5, ratio of number of tumor cells treated with 10 μM compound to non-treated cells.
Where [6] appears, read: Table 6, ratio of number of tumor cells treated with 10 μM compound to non-treated cells.
Where [7] appears, read: Table 1, ratio of number of tumor cells treated with 10 μM compound to non-treated cells.

Usually viability stands for a read-out of living cells in per cent, often relative to untreated cells. As a reminder, the GI50 is the concentration giving 50% growth inhibition. As usually defined, the LC50 is the concentration lethal to half of the exposed cells or organisms.

With `CC(C)(C)c1ccc(-c2nc(NC(=O)c3ccc([N+](=O)[O-])s3)sc2Oc2ccccc2C(F)(F)F)cc1` [Compound 5-75, N-(4-(4-(tert-butyl)phenyl)-5-(2-(trifluoromethyl)phenoxy)thiazol-2-yl)-5-nitrothiophene-2-carboxamide], the viability at 10 µM in test [1] (setting [5]) was 34%. In test [2], the concentration for 50% growth inhibition (GI50) was 730 nM and the LC50 (NCI-60 lethal concentration, 50% net cell loss vs time zero) was 1670 nM. In test [3], the concentration for 50% growth inhibition (GI50) turned out to be 800 nM and the LC50 was determined as 1310 nM. Besides, in test [4], the GI50 turned out to be 670 nM and the LC50 (concentration giving 50% net cell loss versus time zero, NCI-60 definition) worked out at 1110 nM.

`CCCOc1ccc(-c2nc(NC(=O)c3ccc([N+](=O)[O-])s3)sc2Oc2ccc(C#N)cc2)cc1` [Compound 5-39, N-(5-(4-cyanophenoxy)-4-(4-propoxyphenyl)thiazol-2-yl)-5-nitrothiophene-2-carboxamide]: in test [1] (setting [5]), the viability at 10 µM was determined as 56%. Also, in test [2], the GI50 came to 1490 nM and the LC50 (NCI-60 lethal concentration, 50% net cell loss vs time zero) was 6540 nM. In test [3], the 50% growth inhibitory concentration (GI50) was determined as 890 nM and the median lethal concentration (LC50) worked out at 5530 nM. In test [4], the 50% growth inhibitory concentration (GI50) was 230 nM and the LC50 (concentration giving 50% net cell loss versus time zero, NCI-60 definition) amounted to 1160 nM.

In the case of `CCCOc1ccc(-c2nc(NC(=O)c3ccc([N+](=O)[O-])s3)sc2-c2ccc(F)cc2)cc1` [Compound 6-16, N-(5-(4-fluorophenyl)-4-(4-propoxyphenyl)thiazol-2-yl)-5-nitrothiophene-2-carboxamide], in test [1] (setting [6]), the viability at 10 µM is 59%. In test [2], the GI50 was found to be 1890 nM and the LC50 (NCI-60 lethal concentration, 50% net cell loss vs time zero) stood at 2790 nM. In addition, in test [3], the 50% growth inhibitory concentration (GI50) turned out to be 1240 nM and the LC50 was determined as 1830 nM. Moreover, in test [4], the concentration for 50% growth inhibition (GI50) worked out at 860 nM and the LC50 (concentration giving 50% net cell loss versus time zero, NCI-60 definition) was 1750 nM.

In the case of `CCC(C)(C)c1ccc(Oc2sc(NC(=O)c3ccc([N+](=O)[O-])s3)nc2-c2ccc(F)cc2)cc1` [Compound 5-62, N-(4-(4-fluorophenyl)-5-(4-(tert-pentyl)phenoxy)thiazol-2-yl)-5-nitrothiophene-2-carboxamide], the viability at 10 µM in test [1] (setting [5]) came to 45%. Also, in test [2], the GI50 came to 760 nM and the LC50 (NCI-60 lethal concentration, 50% net cell loss vs time zero) is 2250 nM. Moreover, in test [3], the GI50 was determined as 450 nM and the 50% lethal concentration (LC50) worked out at 1160 nM. Further, in test [4], the GI50 was found to be 590 nM and the LC50 (concentration giving 50% net cell loss versus time zero, NCI-60 definition) was 1240 nM.

On to `COc1ccc(-c2sc(NC(=O)c3ccc([N+](=O)[O-])s3)nc2-c2ccc(C(C)(C)C)cc2)cc1` [Compound 6-54, N-(4-(4-(tert-butyl)phenyl)-5-(4-methoxyphenyl)thiazol-2-yl)-5-nitrothiophene-2-carboxamide], for which the viability at 10 µM in test [1] (setting [6]) was determined as 25%. Also, in test [2], the GI50 turned out to be 1380 nM and the LC50 (NCI-60 lethal concentration, 50% net cell loss vs time zero) was 2350 nM. Besides, in test [3], the 50% growth inhibitory concentration (GI50) turned out to be 610 nM and the median lethal concentration (LC50) amounted to 710 nM. In addition, in test [4], the concentration for 50% growth inhibition (GI50) was 440 nM and the LC50 (concentration giving 50% net cell loss versus time zero, NCI-60 definition) was determined as 1590 nM.

Regarding `CCCOc1ccc(-c2nc(NC(=O)c3ccc([N+](=O)[O-])o3)sc2Oc2ccccc2)cc1` [Compound 5-48, 5-nitro-N-(5-phenoxy-4-(4-propoxyphenyl)thiazol-2-yl)furan-2-carboxamide], in test [1] (setting [5]), the viability at 10 µM was 37%. Besides, the GI50 in test [2] worked out at 1810 nM; in test [3], 5220 nM; in test [4] it was 1400 nM. For the same compound, in test [3], the LC50 is 9410 nM.

On to `CCOc1ccc(-c2nnc(NC(=O)Cc3ccc4nc(N)sc4c3)s2)cc1` [Compound 1-2, 2-(2-aminobenzo[d]thiazol-6-yl)-N-(5-(4-ethoxyphenyl)-1,3,4-thiadiazol-2-yl)acetamide], for which the viability at 10 µM in test [1] (setting [7]) amounted to 61%. Besides, in test [2], the concentration for 50% growth inhibition (GI50) was determined as 3550 nM and the LC50 (NCI-60 lethal concentration, 50% net cell loss vs time zero) worked out at 8930 nM. In test [3], the concentration for 50% growth inhibition (GI50) came to 160 nM and the LC50 is 480 nM. In test [4], the GI50 turned out to be 860 nM and the LC50 (concentration giving 50% net cell loss versus time zero, NCI-60 definition) came out at 1240 nM.

As to `CCC(CC)Oc1ccccc1-c1nnc(NC(=O)Cc2ccc3nc(N)sc3c2)s1` [Compound 1-22, 2-(2-aminobenzo[d]thiazol-6-yl)-N-(5-(2-(pentan-3-yloxy)phenyl)-1,3,4-thiadiazol-2-yl)acetamide], the viability at 10 µM in test [1] (setting [7]) was 66%. In addition, the GI50 in test [2] was found to be 1230 nM; in test [3], 90 nM; in test [4], 2670 nM. Besides, in test [3], the LC50 was determined as 8360 nM.

Consider `CC(C)(C)c1ccc(-c2nc(NC(=O)c3ccc([N+](=O)[O-])s3)sc2Oc2ccccc2)cc1` [Compound 5-14, N-(4-(4-(tert-butyl)phenyl)-5-phenoxythiazol-2-yl)-5-nitrothiophene-2-carboxamide], for which, in test [1] (setting [5]), the viability at 10 µM was 50%. Moreover, the GI50 in test [2] was 1510 nM; in test [3], 340 nM; in test [4], 1720 nM. Further, the LC50 in test [3] is 7350 nM.

Regarding `CCC(C)(C)c1ccc(-c2nc(NC(=O)c3ccc([N+](=O)[O-])s3)sc2-c2ccc(F)cc2)cc1` [Compound 6-40, N-(5-(4-fluorophenyl)-4-(4-(tert-pentyl)phenyl)thiazol-2-yl)-5-nitrothiophene-2-carboxamide], in test [1] (setting [6]), the viability at 10 µM was determined as 25%. Further, in test [2], the GI50 was found to be 920 nM and the LC50 (NCI-60 lethal concentration, 50% net cell loss vs time zero) worked out at 1350 nM. Besides, in test [3], the GI50 worked out at 540 nM and the 50% lethal concentration (LC50) was determined as 3030 nM. In test [4], the GI50 was found to be 1880 nM and the LC50 (concentration giving 50% net cell loss versus time zero, NCI-60 definition) came to 3610 nM.

For the compound `CCC(C)(C)c1ccc(Oc2sc(NC(=O)c3ccc([N+](=O)[O-])s3)nc2-c2ccc(C(F)(F)F)cc2)cc1` [Compound 5-71, 5-nitro-N-(5-(4-(tert-pentyl)phenoxy)-4-(4-(trifluoromethyl)phenyl)thiazol-2-yl)thiophene-2-carboxamide], the viability at 10 µM in test [1] (setting [5]) was determined as 49%. In addition, in test [2], the GI50 came to 810 nM and the LC50 (NCI-60 lethal concentration, 50% net cell loss vs time zero) came to 1720 nM. For the same compound, in test [3], the GI50 stood at 630 nM and the 50% lethal concentration (LC50) worked out at 660 nM. Also, in test [4], the GI50 was found to be 1530 nM and the LC50 (concentration giving 50% net cell loss versus time zero, NCI-60 definition) turned out to be 2400 nM.

Turning to `CCCCOc1ccc(-c2nc(NC(=O)c3ccc([N+](=O)[O-])s3)sc2-c2ccc(F)cc2)cc1` [Compound 6-18, N-(4-(4-butoxyphenyl)-5-(4-fluorophenyl)thiazol-2-yl)-5-nitrothiophene-2-carboxamide], the viability at 10 µM in test [1] (setting [6]) came to 26%. For the same compound, the results for the concentration for 50% growth inhibition (GI50) in test [2], in test [3] and in test [4] were 6490 nM, 1380 nM and 2010 nM, respectively. Besides, the 50% lethal concentration (LC50) in test [3] was found to be 2170 nM. The LC50 (concentration giving 50% net cell loss versus time zero, NCI-60 definition) in test [4] came out at 8260 nM.

Regarding `CC(C)(C)c1ccc(-c2nc(NC(=O)c3ccc([N+](=O)[O-])s3)sc2-c2ccc(F)cc2)cc1` [Compound 6-24, N-(4-(4-(tert-butyl)phenyl)-5-(4-fluorophenyl)thiazol-2-yl)-5-nitrothiophene-2-carboxamide], the viability at 10 µM in test [1] (setting [6]) amounted to 30%. In addition, in test [2], the 50% growth inhibitory concentration (GI50) was determined as 1370 nM and the LC50 (NCI-60 lethal concentration, 50% net cell loss vs time zero) was determined as 3570 nM. Moreover, in test [3], the GI50 amounted to 990 nM and the LC50 stood at 1930 nM. Besides, in test [4], the concentration for 50% growth inhibition (GI50) was 1560 nM and the LC50 (concentration giving 50% net cell loss versus time zero, NCI-60 definition) came to 4220 nM.

The values are drawn from patent US11174253B2, “Compound and pharmaceutical composition containing the same” (ALPHALA CO., LTD., priority 2017, dated 2021).
